The values that follow come from patent US6869957B1, “Non-peptide tachykinin receptor antagonists” (Eli Lilly and Company, priority 1993, dated 2005).

The target in one experiment is T1, human NK-2 receptor (Homo sapiens, UniProt P21452).
T1 construct: expressed in transfected cells; host or cells: CHO-hNK-2R cells (CHO-derived), membrane preparation
T1 sequence (P21452 1-398): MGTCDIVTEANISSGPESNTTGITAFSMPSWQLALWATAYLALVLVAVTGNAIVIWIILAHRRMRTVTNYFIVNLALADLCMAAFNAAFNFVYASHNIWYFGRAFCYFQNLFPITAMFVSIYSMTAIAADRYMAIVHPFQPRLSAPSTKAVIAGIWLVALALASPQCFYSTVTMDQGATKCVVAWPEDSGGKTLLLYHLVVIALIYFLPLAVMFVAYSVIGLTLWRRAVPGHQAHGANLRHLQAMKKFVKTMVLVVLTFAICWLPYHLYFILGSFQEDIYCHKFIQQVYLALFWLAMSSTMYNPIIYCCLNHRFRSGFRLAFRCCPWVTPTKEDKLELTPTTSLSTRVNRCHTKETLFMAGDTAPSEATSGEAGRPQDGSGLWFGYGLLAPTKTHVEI
Put plainly: NK-2 Receptor Binding Assay ([125I]iodohistidyl-neurokinin A, CHO-hNK-2R membranes). To be noted: for IC50: inhibits fifty percent of binding of [125I]iodohistidyl-neurokinin A to CHO-hNK-2R membranes. How it is done: The biological activity of the compounds of the present invention was evaluated employing an initial screening assay which rapidly and accurately measured the binding of the tested compound to known NK-1 and NK-2 receptor sites. Assays useful for evaluating tachykinin receptor antagonists are well known in the art. See. e.g., J. Jukic, et al., Life Sciences, 49:1463-1469 (1991); N. Kucharczyk, et al., Journal of Medicinal Chemistry, 36:1654-1661 (1993); N. Rouissi, et al., Biochemical and Biophysical Research Communications, 176:894-901 (1991).
NK-2 Receptor Binding Assay
The CHO-hNK-2R cells, a CHO-derived cell line transformed with the human NK-2 receptor, expressing about 400,000 such receptors per cell, were grown in 75 cm^2 flasks or roller bottles in minimal essential medium (alpha modification) with 10% fetal bovine serum. The gene sequence of the human NK-2 receptor is given in N. P. Gerard, et al., Journal of Biological Chemistry, 265:20455-20462 (1990).
For preparation of membranes, 30 confluent roller bottle cultures were dissociated by washing each roller bottle with 10 ml of Dulbecco's phosphate buffered saline (PBS) without calcium and magnesium, followed by addition of 10 ml of enzyme-free cell dissociation solution (PBS-based, from Specialty Media, Inc.). After an additional 15 minutes, the dissociated cells were pooled and centrifuged at 1,000 RPM for 10 minutes in a clinical centrifuge. Membranes were prepared by homogenization of the cell pellets in 300 ml 50 mM Tris buffer, pH 7.4 with a Tekma® homogenizer for 10-15 seconds, followed by centrifugation at 12,000 RPM (20,000×g) for 30 minutes using a Beckman JA-14® rotor. The pellets were washed once using the above procedure. and the final pellets were resuspended in 100-120 ml 50 mM Tris buffer, pH 7.4, and 4 ml aliquots stored frozen at −70° C. The protein concentration of this preparation was 2 mg/ml.
For the receptor binding assay, one 4-ml aliquot of the CHO-hNK-2R membrane preparation was suspended in 40 ml of assay buffer containing 50 mM Tris, pH 7.4, 3 mM manganese chloride, 0.02% bovine serum albumin (BSA) and 4 μg/ml chymostatin. A 200 μl volume of the homogenate (40 μg protein) was used per sample. The radioactive ligand was [^125I]iodohistidyl-neurokinin A (New England Nuclear, NEX-252), 2200 Ci/mmol. The ligand was prepared in assay buffer at 20 nCi per 100 μl; the final concentration in the assay was 20 pM. Non-specific binding was determined using 1 μM eledoisin. Ten concentrations of eledoisin from 0.1 to 1000 nM were used for a standard concentration-response curve.
All samples and standards were added to the incubation in 10 μl dimethylsulfoxide (DMSO) for screening (single dose) or in 5 μl DMSO for IC50 determinations. The order of additions for incubation was 190 or 195 μl assay buffer, 200 μl homogenate, 10 or 5 μl sample in DMSO, 100 μl radioactive ligand. The samples were incubated 1 hr at room temperature and then filtered on a 48 well Brandel cell harvester through GF/B filters which had been presoaked for two hours in 50 mM Tris buffer, pH 7.7, containing 0.5% BSA. The filter was washed 3 times with approximately 3 ml of cold 50 mm Tris buffer, pH 7.7. The filter circles were then punched into 12×75 mm polystyrene tubes and counted in a gamma counter.

Another experiment has as its target T2, NK-1 receptor (Homo sapiens, UniProt P25103).
T2 construct: endogenous in cells; host or cells: IM9 cells (human cell line), whole cells
As to the kind of experiment: NK-1 Receptor Binding Assay (125I-labeled substance P, IM9 cells). To be noted: for IC50: inhibits fifty percent of binding of 125I-substance P to IM9 cells. How it is done:
The biological activity of the compounds of the present invention was evaluated employing an initial screening assay which rapidly and accurately measured the binding of the tested compound to known NK-1 and NK-2 receptor sites. Assays useful for evaluating tachykinin receptor antagonists are well known in the art.
NK-1 Receptor Binding Assay
Radioreceptor binding assays were performed using a derivative of a previously published protocol.
The IM9 cell line is a well-characterized and readily available human cell line.
The reaction was terminated by filtration through a glass fiber filter harvesting system using filters previously soaked for 20 minutes in 0.1% polyethylenimine. Specific binding of labeled substance P was determined in the presence of 20 nM unlabeled ligand.

T2 sequence (P25103 whole entry): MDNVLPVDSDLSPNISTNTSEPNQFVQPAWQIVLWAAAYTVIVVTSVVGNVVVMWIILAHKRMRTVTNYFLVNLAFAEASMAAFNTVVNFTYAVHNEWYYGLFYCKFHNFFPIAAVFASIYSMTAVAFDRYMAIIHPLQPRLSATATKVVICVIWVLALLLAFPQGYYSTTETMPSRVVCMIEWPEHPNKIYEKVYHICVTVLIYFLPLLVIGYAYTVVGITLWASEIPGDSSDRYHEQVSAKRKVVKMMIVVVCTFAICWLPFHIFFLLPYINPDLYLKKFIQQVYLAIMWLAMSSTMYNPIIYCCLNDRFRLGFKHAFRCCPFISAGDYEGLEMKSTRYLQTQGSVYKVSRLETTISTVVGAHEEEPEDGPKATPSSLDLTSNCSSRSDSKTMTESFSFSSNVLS

Broadly, the IC50 is the concentration that gives 50% inhibition. A lower IC50 goes with inhibition by little substance. Consider `COc1ccccc1CN(CC(Cc1c[nH]c2ccccc12)NC(=O)CN1CCN(c2ccccc2)CC1)C(=O)CNC(=O)OC(C)(C)C` (stereo not drawn) [Example 36], for which the IC50 on human NK-2 receptor came to 0.12 µM; on NK-1 receptor, 0.01 µM.
In the case of `COc1ccccc1CN(CC(Cc1c[nH]c2ccccc12)NC(=O)CN1CCN(c2ccccc2)CC1)S(C)(=O)=O` (stereo not drawn) [Example 37], the IC50 is 0.6 µM at human NK-2 receptor and 0.0042 µM at NK-1 receptor.
On to `CC(=O)N(C)CC(Cc1c[nH]c2ccccc12)NC(=O)CN1CCN(c2ccccc2)CC1` (stereo not drawn) [Example 38], for which the IC50 on human NK-2 receptor was found to be 8 µM. Besides, on NK-1 receptor (@ 5 μM), the “NK-1 percent inhibition of binding” value came out at 30% @.
As to `CCCCCCN(CC(Cc1c[nH]c2ccccc12)NC(=O)CN1CCN(c2ccccc2)CC1)C(C)=O` (stereo not drawn) [Example 40], the IC50 on human NK-2 receptor is 0.91 µM; on NK-1 receptor, 0.0213 µM.
Taken in the same sequence, the figures for `CC(=O)N(CC1CCCCC1)CC(Cc1c[nH]c2ccccc12)NC(=O)CN1CCN(c2ccccc2)CC1` (stereo not drawn) [Example 41] were 0.93 µM and 0.0077 µM.
Consider `CC(=O)N(CC(Cc1c[nH]c2ccccc12)NC(=O)CN1CCN(c2ccccc2)CC1)c1ccccc1` (stereo not drawn) [Example 42], for which the half-inhibitory concentration (IC50) at human NK-2 receptor came out at 1.2 µM. The “NK-1 percent inhibition of binding” value on NK-1 receptor (@ 1 μM) was 16% @.
For the compound `CC(=O)N(CCc1ccccc1)CC(Cc1c[nH]c2ccccc12)NC(=O)CN1CCN(c2ccccc2)CC1` (stereo not drawn) [Example 43], the 50% inhibitory concentration (IC50) on human NK-2 receptor turned out to be 0.039 µM; on NK-1 receptor it was 0.179 µM.
As to `COc1ccccc1CNCC(Cc1c[nH]c2ccccc12)NC(=O)CN1CCC(N2CCCCC2)CC1` (stereo not drawn) [Example 44], on human NK-2 receptor (@ 10 μM), the “NK-2 percent inhibition of binding” value was 54 % at. This compound also displayed an IC50 on NK-1 receptor of 0.025 µM.
With `COc1ccccc1CNCC(Cc1c[nH]c2ccccc12)NC(=O)CN1CCC(N2CCCCC2)CC1` (stereo not drawn) [Example 45], the IC50 on human NK-2 receptor came to 5.3 µM; at NK-1 receptor it was 0.065 µM.
Taken in the same sequence, the figures for `CC(=O)N(Cc1ccccc1)CC(Cc1c[nH]c2ccccc12)NC(=O)CN1CCC(N2CCCCC2)CC1` (stereo not drawn) [Example 46] were 2.4 µM and 0.0022 µM.
Consider `CC(=O)N(CC(Cc1c[nH]c2ccccc12)NC(=O)CN1CCC(N2CCCCC2)CC1)c1ccccc1` (stereo not drawn) [Example 53], for which the half-maximal inhibitory concentration (IC50) at human NK-2 receptor turned out to be 5.2 µM. Further, the “NK-1 percent inhibition of binding” value at NK-1 receptor (@ 5 μM) was found to be 58% @.
As to `CC(=O)N(CCc1ccccc1)CC(Cc1c[nH]c2ccccc12)NC(=O)CN1CCC(N2CCCCC2)CC1` (stereo not drawn) [Example 54], the 50% inhibitory concentration (IC50) on human NK-2 receptor came to 2.1 µM; on NK-1 receptor, 0.0301 µM.
Regarding `COc1ccccc1CN(CC(Cc1c[nH]c2ccccc12)NC(=O)CNCCNc1ccccc1)C(C)=O` (stereo not drawn) [Example 58], the IC50 is 0.34 µM at human NK-2 receptor and 0.014 µM on NK-1 receptor.
Taken in the same sequence, the figures for `COc1ccccc1CN(CC(Cc1c[nH]c2ccccc12)NC(=O)CN1CCCC1)C(C)=O` (stereo not drawn) [Example 59] were 3.7 µM and 0.0073 µM.
With `COc1ccccc1CN(CC(Cc1c[nH]c2ccccc12)NC(=O)CN1CCCCC1)C(C)=O` (stereo not drawn) [Example 60], the 50% inhibitory concentration (IC50) at human NK-2 receptor amounted to 3.9 µM; on NK-1 receptor, 0.024 µM.
For `COc1ccccc1CN(CC(Cc1c[nH]c2ccccc12)NC(=O)CN1CCCCCC1)C(C)=O` (stereo not drawn) [Example 61] the same measures were 0.94 µM and 0.0072 µM.
For `COc1ccccc1CN(CC(Cc1c[nH]c2ccccc12)NC(=O)CN1CCOCC1)C(C)=O` (stereo not drawn) [Example 62] the same measures were 5.9 µM and 0.043 µM.
For `COc1ccccc1CN(CC(Cc1c[nH]c2ccccc12)NC(=O)CN1CCc2ccccc21)C(C)=O` (stereo not drawn) [Example 63] the same measures were 0.49 µM and 0.074 µM.
In the case of `COc1ccccc1CN(CC(Cc1c[nH]c2ccccc12)NC(=O)CN1CCC(c2ccccc2)CC1)C(C)=O` (stereo not drawn) [Example 65], the 50% inhibitory concentration (IC50) on human NK-2 receptor amounted to 0.6 µM; on NK-1 receptor it was 0.0072 µM.
In the case of `COc1ccccc1CN(CC(Cc1c[nH]c2ccccc12)NC(=O)CN1CCC(N(C)C)CC1)C(C)=O` (stereo not drawn) [Example 66], the IC50 was determined as 7.2 µM at human NK-2 receptor and 0.0046 µM at NK-1 receptor.
Taken in the same sequence, the figures for `COc1ccccc1CN(CC(Cc1c[nH]c2ccccc12)NC(=O)CN1CC=C(c2ccccc2)CC1)C(C)=O` (stereo not drawn) [Example 67] were 0.75 µM and 0.0038 µM.
For `COc1ccccc1CN(CC(Cc1c[nH]c2ccccc12)NC(=O)CN1CCC(NC(C)=O)(c2ccccc2)CC1)C(C)=O` (stereo not drawn) [Example 68] the same measures were 2.4 µM and 0.00041 µM.
For `COc1ccccc1CN(CC(Cc1c[nH]c2ccccc12)NC(=O)CN1CCN(c2ccc(Cl)cc2)CC1)C(C)=O` (stereo not drawn) [Example 69] the same measures were 0.83 µM and 0.0054 µM.
Turning to `COc1ccccc1CN(CC(Cc1c[nH]c2ccccc12)NC(=O)CN1CCN(c2cccc(C(F)(F)F)c2)CC1)C(C)=O` (stereo not drawn) [Example 70], the half-maximal inhibitory concentration (IC50) at human NK-2 receptor amounted to 1 µM; on NK-1 receptor it was 0.013 µM.
For `COc1ccccc1CN(CC(Cc1c[nH]c2ccccc12)NC(=O)CN1CCN(C)CC1)C(C)=O` (stereo not drawn) [Example 71] the same measures were 8.9 µM and 0.0075 µM.
For `COc1ccccc1CN(CC(Cc1c[nH]c2ccccc12)NC(=O)CN1CCN(C2CCCCC2)CC1)C(C)=O` (stereo not drawn) [Example 74] the same measures were 1 µM and 0.00036 µM.
For `COc1ccccc1CN(C[C@@H](Cc1c[nH]c2ccccc12)NC(=O)CN1CCN(C2CCCCC2)CC1)C(C)=O` [Example 75, (R)-1-[N-(2-methoxybenzyl)acetylamino]-3-(1H-indol-3-yl)-2-[N-(2-((4-cyclohexyl)piperazin-1-yl)acetyl)amino]propane], the results for the IC50 on human NK-2 receptor and on NK-1 receptor were 0.85 µM and 0.00018 µM, respectively.
Consider `COc1ccccc1CN(C[C@H](Cc1c[nH]c2ccccc12)NC(=O)CN1CCN(C2CCCCC2)CC1)C(C)=O` [Example 76], for which the 50% inhibitory concentration (IC50) at human NK-2 receptor is 1.4 µM; at NK-1 receptor it was 0.069 µM.
Taken in the same sequence, the figures for `COc1ccccc1CN(CC(Cc1c[nH]c2ccccc12)NC(=O)CN1CCN(Cc2ccccc2)CC1)C(C)=O` (stereo not drawn) [Example 77] were 0.63 µM and 0.00088 µM.
Taken in the same sequence, the figures for `COc1ccccc1CN(CC(Cc1c[nH]c2ccccc12)NC(=O)CN1CCN(c2ncccn2)CC1)C(C)=O` (stereo not drawn) [Example 78] were 2.1 µM and 0.01 µM.
For `COc1ccccc1CN(CC(Cc1c[nH]c2ccccc12)NC(=O)CN1CCN(C(C)=O)CC1)C(C)=O` (stereo not drawn) [Example 79], the figures for the half-maximal inhibitory concentration (IC50) on human NK-2 receptor and at NK-1 receptor were 6.1 µM and 0.038 µM, respectively.
For `CCOC(=O)N1CCN(CC(=O)NC(Cc2c[nH]c3ccccc23)CN(Cc2ccccc2OC)C(C)=O)CC1` (stereo not drawn) [Example 80] the same measures were 3.4 µM and 0.019 µM.
Taken in the same sequence, the figures for `COc1ccccc1CN(CC(Cc1c[nH]c2ccccc12)NC(=O)CNCc1ccccn1)C(C)=O` (stereo not drawn) [Example 81] were 1.1 µM and 0.013 µM.
